Data reported in article PMC9628899 (Antiviral Research, 2003).
Where two headings read alike, the source gives them in different places.

Columns and labels:
[1] = test system: cowpox virus (CV); conditions: read-out: EC50 Cowpox; cited from earlier work
[2] = in vitro; conditions: human
[3] = test system: cowpox virus (CV); test: microbe, parasite or virus in culture; assay type: cell-based
[4] = test system: Variola; conditions: read-out: EC50 Variola; cited from earlier work
[5] = test system: vaccinia virus (VV); conditions: read-out: EC50 Vaccinia; Table 4; ref Kern et al. (2002); cited from earlier work
[6] = test system: Monkeypox; conditions: read-out: EC50 Monkeypox; cited from earlier work
[7] = test system: vaccinia virus (VV); test: microbe, parasite or virus in culture; assay type: cell-based
[8] = test system: HFF cells
[9] = test system: cowpox virus; parameters: species or system mice; conditions: mouse, in vivo
[10] = test system: vaccinia virus; assay type: in vivo, mice
[11] = test system: cowpox virus; conditions: mouse, in vivo, po; cited from earlier work
[12] = test system: vaccinia, cowpox, monkeypox, and variola viruses; assay type: cell-based
[13] = ref Barditch-Crovo et al., 1997; cited from earlier work
[14] = Cowpox virus, HFF, read-out: Cowpox virus EC50
[15] = Orthopoxvirus vaccinia, HFF, read-out: Vaccinia virus EC50
[16] = Cowpox virus, HFF, read-out: EC50 CV
[17] = Orthopoxvirus vaccinia, HFF, read-out: EC50 VV

## Nc1ccn(C[C@H]2COP(=O)(O)CO2)c(=O)n1 [Cyclic HPMPC (cHPMPC), Cyclic HPMPC]
[1]
  EC50: 48.3 ± 8 µM
[2]
  CC50: > 302 µM
[3]; [14]
  EC50: 48 ± 8 µM
[4]
  EC50: 45.8 µM
[5]
  EC50: 50.6 ± 13.1 µM
[6]
  EC50: 63.6 µM
[7]; [15]
  EC50: 38 ± 11 µM

## Nc1ccn(C[C@@H](CO)OCP(=O)(O)O)c(=O)n1 [Cidofovir, (S)-1(3-hydroxy-2-phosphonylmethoxypropyl) cytosine]
[1]
  EC50: 44.7 ± 6.3 µM
[2]
  CC50: 278 ± 9.2 µM
[3]; [14]
  EC50: 43 ± 2.5 µM
[3]; [16]
  EC50: 43 µM
[4]
  EC50: 27.3 µM
[5]
  EC50: 46.2 ± 11.9 µM
[6]
  EC50: 4.6 µM
[7]; [17]
  EC50: 33 µM
[7]; [15]
  EC50: 33 ± 9.1 µM

## Nc1ncnc2c1ncn2C[C@@H](CO)OCP(=O)(O)O [HPMPA, (S)-9-(3-hydroxy-2-phosphonylmethoxypropyl)adenine]
[8]
  CC50: 269 ± 21 µM
[3]; read-out: Cowpox virus EC50
  EC50: 5 ± 4.7 µM
[7]
  fold more active than CDV: about 10 fold
[7]; read-out: Vaccinia virus EC50
  EC50: 3.5 ± 2.8 µM

## O=c1[nH]c(=O)n([C@@H]2O[C@H](CO)[C@@H](O)[C@@H]2O)cc1/C=C/Br [Sorivudine]
[3]; [16]
  EC50: > 100 µM
[7]; [17]
  EC50: > 100 µM

## Nc1ncnc2c1ncn2[C@@H]1O[C@H](CO)[C@@H](O)[C@@H]1O [Vidarabine]
[9]
  activity in murine model of cowpox virus infection: not active
[10]; data not presented
  activity in murine model of vaccinia virus infection: not active

## Nc1nc(NC2CC2)c2ncn(CCOCP(=O)(O)O)c2n1 [PME(N^6-cyclopropyl)DAP]
[8]
  CC50: > 263 µM
[3]; read-out: Cowpox virus EC50
  EC50: 28 ± 13 µM
[7]; read-out: Vaccinia virus EC50
  EC50: 23 ± 6.9 µM

## CC(=O)OCC(CCn1cnc2cnc(N)nc21)COC(C)=O [Famciclovir]
[3]; [16]
  EC50: > 300 µM
[7]; [17]
  EC50: > 300 µM

## C=C1[C@H](CO)[C@@H](O)C[C@@H]1n1cnc2c(=O)[nH]c(N)nc21 [Entecavir]
[3]; [16]
  EC50: 85 µM
[7]; [17]
  EC50: 53 µM

## CC(C)OC(=O)OCOP(=O)(CO[C@H](C)Cn1cnc2c(N)ncnc21)OCOC(=O)OC(C)C [Viread]
[3]; [16]
  EC50: > 300 µM
[7]; [17]
  EC50: > 300 µM

## CCCCOC(=O)[C@H](C)NP(=O)(COCCn1cnc2c(N)ncnc21)N[C@@H](C)C(=O)OCCCC [Bis(butylalaninyl)PMEA]
[8]
  CC50: 100 ± 27 µM
[3]; read-out: Cowpox virus EC50
  EC50: 10 ± 8.2 µM
[7]; read-out: Vaccinia virus EC50
  EC50: 4.4 ± 0.2 µM

## Nc1nc(O)c2ncn(COC(CO)CO)c2n1 [Ganciclovir]
[3]; [16]
  EC50: > 300 µM
[7]; [17]
  EC50: > 300 µM

## Nc1cccc(CN2C(=O)N(Cc3cccc(N)c3)[C@H](Cc3ccccc3)[C@H](O)[C@@H](O)[C@H]2Cc2ccccc2)c1 [Mozenavir]
[3]; [16]
  EC50: > 100 µM
[7]; [17]
  EC50: > 100 µM

## Nc1nc(N)c2ncn(CCOCP(=O)(O)O)c2n1 [PMEDAP]
[2]
  CC50: > 339 µM
[3]; [14]
  EC50: > 347 µM
[7]; [15]
  EC50: 204 ± 15 µM

## O=c1[nH]c(=O)n([C@@H]2O[C@H](CO)[C@@H](O)[C@@H]2F)cc1I [Fialuridine]
[3]; [16]
  EC50: 0.24 µM
[7]; [17]
  EC50: 1.5 µM

## Nc1ccn([C@@H]2CS[C@H](CO)O2)c(=O)n1 [Lamivudine]
[3]; [16]
  EC50: > 400 µM
[7]; [17]
  EC50: > 400 µM

## Nc1nc2c(ncn2CCC(CO)CO)c(=O)[nH]1 [Penciclovir]
[3]; [16]
  EC50: > 300 µM
[7]; [17]
  EC50: > 300 µM

## C[C@H](Cn1cnc2c(N)ncnc21)OCP(=O)(O)O [PMPA, (R)-9-(2-phosphonylmethoxypropyl)adenine]
[2]
  CC50: > 300 µM
[3]; [14]
  EC50: > 300 µM
[7]; [15]
  EC50: > 300 µM

## Nc1nc(=O)c2ncn([C@@H]3C[C@H](CO)[C@H]3CO)c2[nH]1 [Lobucavir]
[3]; [16]
  EC50: 66 µM
[7]; [17]
  EC50: 27 µM

## CCOC(=O)C(C)NP1(=O)COC(Cn2ccc(N)nc2=O)CO1 (single isomer, unassigned; isomer i) [Ethyl alaninyl cyclic HPMPC—isomer I, Ethyl alaninyl cyclic HPMPC]
[8]
  CC50: > 276 µM
[3]; read-out: Cowpox virus EC50
  EC50: 27 ± 6.5 µM
[7]; read-out: Vaccinia virus EC50
  EC50: 15 ± 13 µM

## Nc1nc(=O)n([C@@H]2CS[C@H](CO)O2)cc1F [Coviracil]
[3]; [16]
  EC50: > 81 µM
[7]; [17]
  EC50: > 81 µM

## Nc1ccn([C@@H]2O[C@H](CO)[C@@H](O)C2(F)F)c(=O)n1 [Gemcitabine]
[8]
  toxicity in vitro (in words): very toxic
[3]; [16]
  EC50: 0.017 µM
[7]
  selectivity index: > 200
[7]; [17]
  EC50: 0.013 µM

## CCCCCCCCCCCCCCCCOCCCOP(=O)(O)CO[C@H](CO)Cn1ccc(N)nc1=O [HDP-CDV, 3-hexadecyloxy-l-propanol CDV]
[1]
  EC50: 0.6 ± 0.3 µM
[11]
  activity in cowpox virus-infected mice: active
[9]; po
  activity in cowpox virus infection of mice: active orally
[10]; given orally, Kern, unpublished results
  activity in vaccinia virus infection of mice: active orally
[4]
  EC50: 0.1 µM
[12]
  active at levels -fold less than the parent molecules: 50- to 200 fold
[5]
  EC50: 0.8 ± 0.4 µM
[6]
  EC50: 0.07 µM

## CCOC(=O)C(C)NP1(=O)COC(Cn2ccc(N)nc2=O)CO1 (single isomer, unassigned; isomer ii) [Ethyl alaninyl cyclic HPMPC—isomer II, Ethyl alaninyl cyclic HPMPC]
[8]
  CC50: > 278 µM
[3]; read-out: Cowpox virus EC50
  EC50: 26 ± 3.5 µM
[7]; read-out: Vaccinia virus EC50
  EC50: 15 ± 11 µM

## CC(C)(C)C(=O)OCOP(=O)(COCCn1cnc2c(N)ncnc21)OCOC(=O)C(C)(C)C [Adefovir dipivoxil, bis(pivaloyloxymethyl)PMEA]
[2]
  CC50: 117 ± 27 µM
[3]; [14]
  EC50: 13 ± 8.8 µM
[3]; [16]
  EC50: 13 µM
[13]
  oral bioavailability: good oral bioavailability
[7]; [17]
  EC50: 5.1 µM
[7]; [15]
  EC50: 5.1 ± 0.7 µM

## Nc1nc(N)c2ncn([C@H]3CO[C@@H](CO)O3)c2n1 [Amdoxovir]
[3]; [16]
  EC50: > 300 µM
[7]; [17]
  EC50: > 300 µM

## O=C(O)P(=O)(O)O [Foscarnet]
[3]; [16]
  EC50: > 300 µM
[7]; [17]
  EC50: > 300 µM

## CC(C)OC(=O)[C@H](C)N[P@](=O)(CO[C@H](C)Cn1cnc2c(N)ncnc21)Oc1ccccc1 [Isopropyl alaninylphenyl PMPA]
[2]
  CC50: > 143 µM
[3]; [14]
  EC50: 98.9 µM
[7]; [15]
  EC50: 23.5 µM

## CCCCOC(=O)C(C)NP(=O)(COCCn1cnc2c(NC3CC3)nc(N)nc21)NC(C)C(=O)OCCCC (stereo not shown) [Bis(butylalaninyl) PME(N^6-cyclopropyl)DAP]
[8]
  CC50: 49 ± 33 µM
[3]; read-out: Cowpox virus EC50
  EC50: 0.26 ± 0.2 µM
[7]; read-out: Vaccinia virus EC50
  EC50: 0.08 ± 0.01 µM

## CCCCCCCCCCCCCCCCOCCCOP1(=O)COC(Cn2ccc(N)nc2=O)CO1 (stereo not drawn) [HDP-cCDV, 3-hexadecyloxy-l-propanol cyclic CDV]
[1]
  EC50: 2.1 ± 1.9 µM
[4]
  EC50: 0.9 µM
[12]
  active at levels -fold less than the parent molecules: 50- to 200 fold
[5]
  EC50: 3.8 ± 1.5 µM
[6]
  EC50: 1.8 µM

## Nc1ncnc2c1ncn2CCOCP(=O)(O)O [Adefovir, 9-(2-phosphonylmethoxyethyl)adenine]
[2]
  CC50: > 366 µM
[3]; [14]
  EC50: > 366 µM
[3]; [16]
  EC50: > 300 µM
[7]; [17]
  EC50: > 300 µM
[7]; [15]
  EC50: > 366 µM

## Nc1nc2c(ncn2CCOCP(=O)(O)O)c(=O)[nH]1 [PMEG, 2-phosphonylmethoxyethyl guanine]
[8]
  CC50: 88 µM
[3]; read-out: Cowpox virus EC50
  EC50: 11.4 ± 1.3 µM
[7]; read-out: Vaccinia virus EC50
  EC50: 4 ± 0.7 µM

## Cc1cn([C@H]2O[C@@H](CO)[C@H](O)[C@H]2F)c(=O)[nH]c1=O [Clevudine]
[3]; [16]
  EC50: > 300 µM
[7]; [17]
  EC50: > 300 µM

## Butyl salicyl cyclic HPMPC
[8]
  CC50: > 213 µM
[3]; read-out: Cowpox virus EC50
  EC50: 34 ± 4.2 µM
[7]; read-out: Vaccinia virus EC50
  EC50: 32 ± 13 µM

## Nc1nc2c(ncn2COCCO)c(=O)[nH]1 [Acyclovir]
[3]; [16]
  EC50: > 300 µM
[7]; [17]
  EC50: > 300 µM

## C[C@H](NP1(=O)CO[C@@H](Cn2ccc(N)nc2=O)CO1)C(=O)OCCc1ccccc1 (stereo partly shown) [Phenethyl alaninyl cyclic HPMPC—mixture, Phenethyl alaninyl cyclic HPMPC]
[8]
  CC50: 207 ± 18 µM
[3]; read-out: Cowpox virus EC50
  EC50: 6.8 ± 1.8 µM
[7]; read-out: Vaccinia virus EC50
  EC50: 7.1 ± 0.3 µM

## O=c1[nH]c(=O)n([C@H]2C[C@H](O)[C@@H](CO)O2)cc1I [Idoxuridine]
[3]; [16]
  EC50: 2 µM
[7]; [17]
  EC50: 6 µM

## NC(=O)c1ncn([C@@H]2O[C@H](CO)[C@@H](O)[C@H]2O)n1 [Ribavirin]
[3]; [16]
  EC50: > 400 µM
[7]; [17]
  EC50: 280 µM

## CCOCn1c(Cc2ccccc2)c(C(C)C)c(=O)[nH]c1=O [Emivirine]
[3]; [16]
  EC50: > 300 µM
[7]; [17]
  EC50: > 300 µM

## O=c1[nH]c(=O)n([C@H]2C[C@H](O)[C@@H](CO)O2)cc1/C=C/Br [Brivudin]
[3]; [16]
  EC50: 66 µM
[7]; [17]
  EC50: > 100 µM

## CC(C)OC(=O)OCOP(=O)(CO[C@H](C)Cn1cnc2c(N)ncnc21)OCOC(=O)OC(C)C [Bis(isopropoxycarbonyloxymethyl)PMPA, bis(isopropoxycarbonyloxymethyl)PMPA]
[2]
  CC50: > 157 µM
[3]; [14]
  EC50: > 157 µM
[7]; [15]
  EC50: > 157 µM
